Results as given in the supplement of paper PMC11208160.

Assay: recombinant UMI read abundance after kanamycin selection (control-corrected) (log10(CPM+1)); higher = more efficient recombination; extreme values may be limits of the assay; sequences stand for … in AGTGCAGAGAAAATCGGCCAGTTTTCTCTGCCTGCAGTCCGCATGCCGTGGGACCCCTTGGGTTCTAACCTGTTGCCTAGATTTATGCAGCGGACTGCCTTTCTCCCAAAGTGATAAACCGG…AGGTTGGTTTCACT; site = the 11-nt donor
Procedure, shortened: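 In a pooled Escherichia coli screen for the IS621 bridge recombinase, donor and donor-binding-loop pairs were each placed with a 12-nt UMI on a plasmid bearing a promoterless kanamycin gene. This library was co-electroporated with a target plasmid encoding a fixed target and T7-inducible recombinase, and cells were plated either on IPTG (0.07 mM) plus kanamycin or without selection, in two replicates each. Recombinant UMIs were PCR-amplified across the donor–target junction and sequenced, and counts were converted to CPM, averaged over replicates, scaled by control-derived factors and reported as log10(CPM+1).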

Row | Sequence | recombinant UMI read abundance (log10)
1 | CTAGGACCATGGACCGGTTTTCCCGGTAATCCGTATTTGGG (site CAAGGACCTCC) | 0.0215
2 | CTAGGACCATGGACCGGTTTTCCCGGTAATCCGTATTTGGG (site CCAGGACCTCC) | 0.00872
3 | CTAGGACCATGGACCGGTTTTCCCGGTAATCCGTATTTGGG (site CGAGGACCTCC) | 0
4 | CTAGGACCATGGACCGGTTTTCCCGGTAATCCGTATTTGGG (site CTAGGACCTCC) | 0.0095
5 | CTAGGACCATGGACCGGTTTTCCCGGTAATCCGTATTTGTG (site CTAGGACCTCA) | 0.00443
6 | CTAGGATCATGGACCGGTTTTCCCGGTAATCCGTATTTGAC (site CTAGAATCTGT) | 2.89
7 | CTAGGATCATGGACCGGTTTTCCCGGTAATCCGTATTTGAC (site CTAGCATCTGT) | 1.06
8 | CTAGGATCATGGACCGGTTTTCCCGGTAATCCGTATTTGAC (site CTAGGATCTGT) | 1.9
9 | CTAGGATCATGGACCGGTTTTCCCGGTAATCCGTATTTGAC (site CTAGTATCTGT) | 1.35
10 | CTAGTACCATGGACCGGTTTTCCCGGTAATCCGTATTTGGC (site CTAGTACCTGC) | 0
11 | CTAGTACCATGGACCGGTTTTCCCGGTAATCCGTATTTGGC (site CTAGTATCTGT) | 1.63
12 | CTAGTAGCATGGACCGGTTTTCCCGGTAATCCGTATTTGAC (site CTAGTAACTGT) | 2.01
13 | CTAGTAGCATGGACCGGTTTTCCCGGTAATCCGTATTTGAC (site CTAGTACCTGT) | 0
14 | CTAGTAGCATGGACCGGTTTTCCCGGTAATCCGTATTTGAC (site CTAGTAGCTGT) | 2.87
15 | CTAGTAGCATGGACCGGTTTTCCCGGTAATCCGTATTTGAC (site CTAGTATCTGT) | 2.74
16 | CTAGTATCATGGACCGGTTTTCCCGGTAATCCGTATTTGGC (site CTAGTATCTGA) | 2.25
17 | CTAGTATCATGGACCGGTTTTCCCGGTAATCCGTATTTGGC (site CTAGTATCTGC) | 3.32

Row | Sequence | recombinant UMI read abundance (log10)
18 | CTAGTATCATGGACCGGTTTTCCCGGTAATCCGTATTTGGC (site CTAGTATCTGG) | 2.2
19 | CTAGTATCATGGACCGGTTTTCCCGGTAATCCGTATTTGGC (site CTAGTATCTGT) | 2.76
20 | CTAGTATCATGGACCGGTTTTCCCGGTAATCCGTATTTGGT (site CTAGTATCTAC) | 1.85
21 | CTAGTATCATGGACCGGTTTTCCCGGTAATCCGTATTTGGT (site CTAGTATCTGT) | 2.06
22 | CTAGTATCATGGACCGGTTTTCCCGGTAATCCGTATTTGTC (site CTAGTATCTGA) | 3.35
23 | CTAGTATCATGGACCGGTTTTCCCGGTAATCCGTATTTGTC (site CTAGTATCTGC) | 3.17
24 | CTAGTATCATGGACCGGTTTTCCCGGTAATCCGTATTTGTC (site CTAGTATCTGG) | 3.08
25 | CTAGTATCATGGACCGGTTTTCCCGGTAATCCGTATTTGTC (site CTAGTATCTGT) | 2.65
26 | CTAGTCTCATGGACCGGTTTTCCCGGTAATCCGTATTTGAG (site CTAGTATCTGT) | 0
27 | CTAGTCTCATGGACCGGTTTTCCCGGTAATCCGTATTTGAG (site CTAGTCTCTCT) | 0.61
28 | CTAGTCTCATGGACCGGTTTTCCCGGTAATCCGTATTTGTC (site CTAGTATCTGT) | 0.445
29 | CTAGTCTCATGGACCGGTTTTCCCGGTAATCCGTATTTGTC (site CTAGTCTCTGA) | 3.48
30 | CTAGTTGCATGGACCGGTTTTCCCGGTAATCCGTATTTGAC (site CTAGTATCTGT) | 0.412
31 | CTAGTTGCATGGACCGGTTTTCCCGGTAATCCGTATTTGAC (site CTAGTTGCTGT) | 2.24
32 | CTATAGCCATGGACCGGTTTTCCCGGTAATCCGTATTTGCG (site CTATAGCCTCG) | 1.01
33 | CTATATCCATGGACCGGTTTTCCCGGTAATCCGTATTTGTA (site CTATATCCTTA) | 1.51
34 | CTATCATCATGGACCGGTTTTCCCGGTAATCCGTATTTGAT (site CTATCATCTAT) | 0.00941
